We go through five molecules from patent US20100190199A1, “GPR30 ESTROGEN RECEPTOR IN BREAST AND OVARIAN CANCERS” (Rhode Island Hospital, priority 2008, published 2010).

Assay [1] relates to alpha and beta ERs. The note with it: cited from earlier work.
The target of assay [2] is T1, GPR30 (Homo sapiens, UniProt Q99527).
T1 construct: human SKBR3 breast cancer cells (Erα^−, ERβ^−, GPR30^+); endogenous in cells
The assay can be described thus: Estrogen-mediated fibronectin (FN) matrix assembly by human breast cancer cells. The class given is cell-based. The note with it: stimulation of human breast cancer cells.

In assay [3] the test system is EGFR. The note with it: breast cancer cells; behave similarly to estradiol; cited from earlier work.
Assay [4] relates to ER+ ovarian cancer. The following applies: ovarian cancer patients, second-line therapy, Phase II; cited from earlier work.

T1 sequence (Q99527 whole entry): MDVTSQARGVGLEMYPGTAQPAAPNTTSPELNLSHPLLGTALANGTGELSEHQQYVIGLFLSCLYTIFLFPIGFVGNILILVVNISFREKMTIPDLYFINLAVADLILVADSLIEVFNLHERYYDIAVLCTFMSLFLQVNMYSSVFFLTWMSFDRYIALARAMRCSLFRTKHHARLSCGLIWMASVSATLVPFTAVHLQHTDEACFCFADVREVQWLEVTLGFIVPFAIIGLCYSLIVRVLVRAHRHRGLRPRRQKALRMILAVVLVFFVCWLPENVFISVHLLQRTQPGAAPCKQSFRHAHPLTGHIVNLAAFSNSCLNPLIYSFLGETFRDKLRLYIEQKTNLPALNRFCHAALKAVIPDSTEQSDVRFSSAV

For `C[C@]12CC[C@@H]3c4ccc(O)cc4CC[C@H]3[C@@H]1CC[C@@H]2O` [17β-estradiol], the “Binding preference ERα versus ERβ” value in assay [1] is reported as “binds equally well to both receptors”.
In the case of `C[C@]12CC[C@@H]3c4ccc(O)cc4C[C@@H](CCCCCCCCC[S+]([O-])CCCC(F)(F)C(F)(F)F)[C@H]3[C@@H]1CC[C@@H]2O` (stereo partly drawn) [ICI 182,780], the “FN matrix assembly: recruitment of FN-engaged integrin α5β1 conformers to fibrillar adhesions and synthesis of FN fibrils” value in assay [2] is “resulted in the recruitment of FN-engaged integrin α5β1 conformers to fibrillar adhesions and the synthesis of FN fibrils”. For the same molecule, the EGFR activation entry in assay [3] is on record as “capable of triggering EGFR activation in breast cancer cells”.
For the molecule `N#Cc1ccc(C(c2ccc(C#N)cc2)n2cncn2)cc1` [Letrozole], the “Clinical response measured by ovarian cancer serum marker CA-125” value in assay [4] was “stable disease”.
For `O=C(c1ccc(OCCN2CCCCC2)cc1)c1c(-c2ccc(O)cc2)sc2cc(O)ccc12` [raloxifene], the “Binding preference ERα versus ERβ” value in assay [1] is reported as “bind preferentially to the alpha receptor”.
For `CC/C(=C(\c1ccccc1)c1ccc(OCCN(C)C)cc1)c1ccccc1` [tamoxifen], the EGFR activation result in assay [3] is “capable of triggering EGFR activation in breast cancer cells”.
